# Source: patent US5840697A, “Peptide inhibitors of calmodulin” (Torrey Pines Institute for Molecular Studies, priority 1996, dated 1998)
# Square brackets hold non-standard residues; d marks the D form. Peptide text beside a SMILES is read from it.
# Assays:
# [1] = tested on: normal rat kidney (NRK) cells; experiment: DNA synthesis ([3H]-thymidine incorporation) in cell culture; type: cell-based; conditions: added at 5 hr
# Procedure: Following the methods described in Lopez-Girona et al., Cell Calcium, 18:30-40 (1995), which is incorporated herein by reference, the effect of calmodulin inhibitory peptides on DNA synthesis was investigated. Specifically, peptides were added to culture media and assessed for their ability to inhibit the progression of normal rat kidney (NRK) cells into the S phase of the cell cycle; the DNA synthesis phase into the cell growth cycle. Such inhibition has been shown for existing anti-calmodulin drugs such as W13.
# NRK cells were made quiescent by growing them to confluence in Dulbecco's minimum essential medium supplemented with 5% fetal calf serum (FCS), and then kept for 3-4 days in the same medium but with only 0.5% FCS. To allow them to re-enter the cell cycle, quiescent cells were trypsinized and subcultured at a lower density in fresh medium supplemented with 5% FCS.
# DNA synthesis was analyzed by the measurement of [^3 H]-thymidine into whole cell DNA. NRK cells (10^5 per 35 mm plate) were pulse labeled for 1 hr with [methyl-^3 H]-thymidine (5 Ci/mmol) at 4 μCi/ml in Dulbecco's minimum essential medium supplemented with 5% FCS. Precipitation and solubilization of DNA was carried out as described in Cripps-Wolfman et al., J. Biol. Chem., 264:19478-19486 (1989), which is incorporated herein by reference.
# The NRK cells stimulated to proliferate by addition of 5% FCS enter synchronously into the cell cycle and start the S phase after 12 hr reaching a maximum between 18 to 20 hr. The peptides were added at 5 hr (time at which the cells have already reenter the G1 phase). […] Similar results were found between the (D)-amino acid peptides and their (L)-counterpart.
# NRK cells = experiment: long term stability: number of NRK cells at 48 hr after activation; type: cell-based, rat; conditions: added at 5 hr, counted 48 hr after activation
# From the text: The similar activity found for the (L)-amino acid peptides and (D)-amino acid peptides indicate that the inhibition of calmodulin occurs rapidly following the addition of the inhibitory peptides. The peptides' long term stability was then studied by adding Ac-(D)Leu-(D)Trp-(D)Arg-(D)Ile-(D)Leu-(D)Trp-NH2, Ac-Leu-Trp-Arg-Ile-Leu-Trp-NH2 (SEQ ID No. 48), W13 and W12 at 5 hr following the reentry of the NRK cells into the cell cycle and measuring the number of cells at 48 hr after activation.
smiles,measurement,setting,value
CC[C@@H](C)[C@@H](NC(=O)[C@@H](CCCNC(=N)N)NC(=O)[C@@H](Cc1c[nH]c2ccccc12)NC(=O)[C@@H](CC(C)C)NC(C)=O)C(=O)N[C@H](CC(C)C)C(=O)N[C@H](Cc1c[nH]c2ccccc12)C(N)=O [Ac-(D)Leu-(D)Trp-(D)Arg-(D)Ile-(D)Leu-(D)Trp-NH2] (Ac-[dL][dW][dR][dI][dL][dW]-NH2),% DNA SYNTHESIS,[1]; 7.5 μM,59%
same,% DNA SYNTHESIS,[1]; 15 μM,25%
same,number of cells relative to control cells,NRK cells,significantly lower number of cells
